The test deals with Beta-galactosidase (Escherichia coli, UniProt Q8VNN2). Briefly: Competitive inhibition of Escherichia coli beta-galactosidase assessed as p-nitrophenyl-beta-D-galactopyranoside substrate hydrolysis by UV/Vis spectroscopy.
Chain of Beta-galactosidase (Q8VNN2 whole entry): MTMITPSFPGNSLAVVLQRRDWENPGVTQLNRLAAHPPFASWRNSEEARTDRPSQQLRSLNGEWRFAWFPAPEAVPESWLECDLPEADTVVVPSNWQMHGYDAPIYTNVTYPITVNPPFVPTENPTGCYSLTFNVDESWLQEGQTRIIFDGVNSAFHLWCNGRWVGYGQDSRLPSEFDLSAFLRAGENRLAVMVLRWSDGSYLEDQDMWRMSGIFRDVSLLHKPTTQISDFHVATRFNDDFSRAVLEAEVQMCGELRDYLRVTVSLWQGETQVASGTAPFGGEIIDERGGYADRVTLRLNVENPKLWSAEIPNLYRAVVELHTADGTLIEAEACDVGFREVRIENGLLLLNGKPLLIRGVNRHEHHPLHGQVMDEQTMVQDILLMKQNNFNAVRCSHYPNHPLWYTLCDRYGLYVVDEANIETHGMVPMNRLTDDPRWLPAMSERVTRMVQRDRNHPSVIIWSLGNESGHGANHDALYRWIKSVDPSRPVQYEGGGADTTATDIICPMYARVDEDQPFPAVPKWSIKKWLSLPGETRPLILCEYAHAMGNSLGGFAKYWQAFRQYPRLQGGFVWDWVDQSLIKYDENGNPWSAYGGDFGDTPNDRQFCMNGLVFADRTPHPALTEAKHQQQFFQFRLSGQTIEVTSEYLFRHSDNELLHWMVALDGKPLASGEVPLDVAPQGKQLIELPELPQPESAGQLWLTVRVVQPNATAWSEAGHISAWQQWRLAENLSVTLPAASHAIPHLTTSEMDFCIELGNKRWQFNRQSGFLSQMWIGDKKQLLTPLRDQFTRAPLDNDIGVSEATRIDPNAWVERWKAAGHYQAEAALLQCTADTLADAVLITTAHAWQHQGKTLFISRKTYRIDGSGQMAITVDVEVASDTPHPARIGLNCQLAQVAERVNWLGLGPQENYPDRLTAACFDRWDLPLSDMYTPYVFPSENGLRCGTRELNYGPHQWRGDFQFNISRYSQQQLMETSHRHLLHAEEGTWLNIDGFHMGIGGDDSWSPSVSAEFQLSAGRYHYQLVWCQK
For `Cc1ccc(C/N=C2\N[C@H](CO)[C@H](O)[C@H](O)[C@H]2O)cc1`, the Ki (in general, a dissociation constant, usually derived from enzyme kinetics or from competition with a known ligand) came out at 0.06 nM.

On to `Cc1ccc(CNC2=N[C@H](CO)[C@H](O)[C@H](O)C2)cc1`, for which the Ki is 1.3 nM.

Regarding `CO[C@@H]1[C@H](O)[C@@H](O)C(NCc2ccc(C)cc2)=N[C@@H]1CO`, the Ki was found to be 32 nM.

As to `CO[C@H]1C(NCc2ccc(C)cc2)=N[C@H](CO)[C@H](O)[C@@H]1O`, the Ki was found to be 42 nM.

(Values after ChEMBL document CHEMBL3751673, “Illuminating the binding interactions of galactonoamidines during the inhibition of β-galactosidase (E. coli)” (Bioorg Med Chem, 2016).)
